Results as given in patent US7074801B1, “Nitrogen-containing condensed cyclic compound having a pyrazolyl group as a substituent group and pharmaceutical composition thereof” (Eisai Co., Ltd., priority 2001, dated 2006).
pIC50: −log10 of the molar value. Structures can show the parent of a compound that is named as a salt. Where two headings read alike, the source gives them in different places.

Tested on: STAT6
Assay: Inhibitory test on STAT6 activation: IL-4-induced alkali phosphatase STAT6 reporter in 293 cells stably expressing the STAT6 gene and STAT6 reporter gene
Type: cell-based
Conditions: HEK293, 1 ng/ml human recombinant IL-4, 16 hours, 293 cells with STAT6 reporter, read-out: Inhibitory activity IC50 (concentration at which the alkali phosphatase activity induced by IL-4 was inhibited by 50%)
Method in brief: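 HEK293 clone stably carrying STAT6 and a STAT6-element-driven alkaline phosphatase reporter, 5000 cells/well. Compound (DMSO ≤0.1%) plus 1 ng/ml human IL-4 for 16 hours. Supernatant heat-treated 65° C. 10 minutes, then alkaline phosphatase measured fluorometrically in carbonate buffer.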

Structure (SMILES) | pIC50 (Table 2) | pIC50 (Table 1)
Cc1ccc(-c2n[nH]cc2-c2ccc3ncnc(-c4ccc(S(C)(=O)=O)s4)c3c2)cc1 [Example 890, 4-(5-Methylsulfonylthiophen-2-yl)-6-(3-p-tolyl-1H-pyrazol-4-yl) quinazoline] | > 8.00 | 
O=C(Nc1ccc(-c2cnc3ccc(-c4cn[nH]c4)cn23)cc1F)c1ccc(F)cc1 [Example 705, N1-{2-Fluoro-4-[6-(1H-4-pyrazolyl)imidazo[1,2-a]pyridin-3-yl]phenyl}-4-fluorobenzamide hydrochloride] | 7.00 to 8.00 | 
CS(=O)(=O)c1ccc(OC2CCN(c3ccnc4ccc(-c5cn[nH]c5)cc34)CC2)c(F)c1 [Example 1032, 4-[4-(2-Fluoro-4-methylsulfonylphenoxy)-piperidin-1-yl]-6-(1H-pyrazol-4-yl)quinoline trihydrochloride] | 7.00 to 8.00 | 
O=S(=O)(c1cccc(N2CCN(c3ncnc4ccc(-c5cn[nH]c5)cc34)CC2)c1)N1CCCCC1 [Example 955, 4-{4-[3-(Piperidine-1-sulfonyl)phenyl]piperazin-1-yl}-6-(1H-pyrazol-4-yl)quinazoline tri-trifluoroacetate] | > 8.00 | 
CS(=O)(=O)c1ccc(N2CCN(c3ncnc4ccc(-c5cn[nH]c5)cc34)CC2)s1 [Example 923, 4-[4-(5-Methylsulfonylthiophen-2-yl)piperazin-1-yl]-6-(1H-pyrazol-4-yl)quinazoline trihydrochloride] | > 8.00 | 

Second part, the compound after the results:

pIC50 (Table 2) | pIC50 (Table 1) | Structure (SMILES)
 | > 8.00 | COc1ccc(-c2cnc3ccc(-c4c[nH]nc4-c4ccc(F)cc4)cn23)cc1F [Example 622, 3-(3-Fluoro-4-methoxyphenyl)-6-[3-(4-fluorophenyl)-1H-4-pyrazolyl]imidazo[1,2-a]pyridine hydrochloride]
 | > 8.00 | O=C1CCc2cc(-c3cnc4ccc(-c5c[nH]nc5-c5ccc(F)cc5)cn34)ccc21 [Example 623, 5-{6-[3-(4-Fluorophenyl)-1H-4-pyrazolyl]imidazo[1,2-a]pyridin-3-yl}-1-indanone]
 | 7.00 to 8.00 | CS(=O)(=O)c1ccc(-c2n[nH]cc2-c2ccc3ncc(-c4ccc(C#N)cc4)n3c2)cc1 [Example 102, 4–6-(3-[4-(Methylsulfonyl)phenyl]-1H-4-pyrazolyl}imidazo-[1,2-a]pyridin-3-yl)benzonitrile dihydrochloride]
